{"source": "ChEMBL document CHEMBL1155237", "about": "“Selective inhibitors of the mutant B-Raf pathway: discovery of a potent and orally bioavailable aminoisoquinoline” (J Med Chem, 2009)", "key": {"[1]": {"biological_target": "Dual specificity mitogen-activated protein kinase kinase 1 (Homo sapiens) (UniProt Q02750)", "experiment": "Inhibition of MEK1 assessed as enzyme activity at 1 uM relative to untreated control", "set-up": "scale not given: the % may be the effect or the level left"}, "[2]": {"biological_target": "Serine/threonine-protein kinase MRCK gamma (Homo sapiens) (UniProt Q6DT37)", "experiment": "Inhibition of DMPK2 assessed as enzyme activity at 1 uM relative to untreated control", "set-up": "scale not given: the % may be the effect or the level left"}, "[3]": {"biological_target": "Protein-tyrosine kinase 6 (Homo sapiens) (UniProt Q13882)", "experiment": "Inhibition of PTK6 assessed as enzyme activity at 1 uM relative to untreated control", "set-up": "scale not given: the % may be the effect or the level left"}, "[4]": {"biological_target": "Serine/threonine-protein kinase tousled-like 1 (Homo sapiens) (UniProt Q9UKI8)", "sequence (Q9UKI8 whole entry)": "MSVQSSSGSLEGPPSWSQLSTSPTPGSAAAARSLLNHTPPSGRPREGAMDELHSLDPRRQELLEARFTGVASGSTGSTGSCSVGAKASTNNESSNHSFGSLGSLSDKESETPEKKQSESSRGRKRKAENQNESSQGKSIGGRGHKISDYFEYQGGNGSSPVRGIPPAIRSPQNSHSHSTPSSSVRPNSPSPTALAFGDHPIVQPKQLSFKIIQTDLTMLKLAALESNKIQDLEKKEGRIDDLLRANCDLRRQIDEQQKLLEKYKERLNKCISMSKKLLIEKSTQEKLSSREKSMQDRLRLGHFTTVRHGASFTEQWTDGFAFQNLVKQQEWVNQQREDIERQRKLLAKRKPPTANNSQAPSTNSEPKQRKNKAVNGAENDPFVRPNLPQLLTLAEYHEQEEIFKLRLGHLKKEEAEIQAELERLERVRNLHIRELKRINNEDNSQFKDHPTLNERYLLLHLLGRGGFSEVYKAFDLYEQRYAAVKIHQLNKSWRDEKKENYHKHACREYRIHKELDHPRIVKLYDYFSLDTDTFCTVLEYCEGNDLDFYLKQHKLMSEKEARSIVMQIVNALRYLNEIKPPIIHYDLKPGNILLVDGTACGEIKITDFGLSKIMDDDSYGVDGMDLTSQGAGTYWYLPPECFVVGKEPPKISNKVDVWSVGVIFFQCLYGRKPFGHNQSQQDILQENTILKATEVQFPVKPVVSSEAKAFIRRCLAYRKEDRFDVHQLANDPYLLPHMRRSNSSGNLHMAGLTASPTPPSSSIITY", "experiment": "Inhibition of TLK1 assessed as enzyme activity at 1 uM relative to untreated control", "set-up": "scale not given: the % may be the effect or the level left"}, "[5]": {"biological_target": "Mitogen-activated protein kinase 10 (Homo sapiens) (UniProt P53779)", "experiment": "Inhibition of JNK3 assessed as enzyme activity at 1 uM relative to untreated control", "set-up": "scale not given: the % may be the effect or the level left"}, "[6]": {"biological_target": "Cyclin-dependent kinase 3 (Homo sapiens) (UniProt Q00526)", "experiment": "Inhibition of CDK3 assessed as enzyme activity at 1 uM relative to untreated control", "set-up": "scale not given: the % may be the effect or the level left"}, "[7]": {"biological_target": "Fibroblast growth factor receptor 1 (Homo sapiens) (UniProt P11362)", "sequence (P11362 22-822 limits assumed)": "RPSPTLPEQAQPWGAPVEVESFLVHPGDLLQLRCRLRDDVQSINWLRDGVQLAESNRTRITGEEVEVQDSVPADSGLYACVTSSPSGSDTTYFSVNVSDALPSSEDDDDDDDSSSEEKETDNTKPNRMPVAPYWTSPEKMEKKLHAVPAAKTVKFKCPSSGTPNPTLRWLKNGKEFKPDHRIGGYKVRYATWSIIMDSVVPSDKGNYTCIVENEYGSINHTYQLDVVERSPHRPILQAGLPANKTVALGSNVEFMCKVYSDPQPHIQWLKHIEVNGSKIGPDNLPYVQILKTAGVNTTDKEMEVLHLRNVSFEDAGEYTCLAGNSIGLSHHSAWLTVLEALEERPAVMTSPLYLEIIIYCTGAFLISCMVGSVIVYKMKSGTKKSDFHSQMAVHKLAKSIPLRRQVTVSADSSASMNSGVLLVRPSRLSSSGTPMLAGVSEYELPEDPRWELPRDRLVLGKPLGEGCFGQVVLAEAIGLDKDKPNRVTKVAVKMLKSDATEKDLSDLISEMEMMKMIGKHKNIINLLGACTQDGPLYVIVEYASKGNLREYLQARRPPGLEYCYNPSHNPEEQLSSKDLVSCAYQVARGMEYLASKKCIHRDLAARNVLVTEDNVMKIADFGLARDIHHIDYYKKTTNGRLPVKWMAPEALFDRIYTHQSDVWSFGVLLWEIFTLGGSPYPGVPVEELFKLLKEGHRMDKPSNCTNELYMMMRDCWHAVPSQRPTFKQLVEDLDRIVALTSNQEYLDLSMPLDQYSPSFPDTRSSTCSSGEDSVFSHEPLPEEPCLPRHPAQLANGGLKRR", "experiment": "Inhibition of FGFR1 assessed as enzyme activity at 1 uM relative to untreated control", "set-up": "scale not given: the % may be the effect or the level left"}, "[8]": {"test_system": "Tyrosine-protein kinase ABL1 (Homo sapiens), P00519 [Y253F]", "experiment": "Inhibition of ABL1 Y253F mutant assessed as enzyme activity at 1 uM relative to untreated control", "set-up": "scale not given: the % may be the effect or the level left"}, "[9]": {"biological_target": "Atypical kinase COQ8A, mitochondrial (Homo sapiens) (UniProt Q8NI60)", "experiment": "Inhibition of ADCK3 assessed as enzyme activity at 1 uM relative to untreated control", "set-up": "scale not given: the % may be the effect or the level left"}, "[10]": {"biological_target": "Dual specificity mitogen-activated protein kinase kinase 2 (Homo sapiens) (UniProt P36507)", "sequence (P36507 whole entry)": "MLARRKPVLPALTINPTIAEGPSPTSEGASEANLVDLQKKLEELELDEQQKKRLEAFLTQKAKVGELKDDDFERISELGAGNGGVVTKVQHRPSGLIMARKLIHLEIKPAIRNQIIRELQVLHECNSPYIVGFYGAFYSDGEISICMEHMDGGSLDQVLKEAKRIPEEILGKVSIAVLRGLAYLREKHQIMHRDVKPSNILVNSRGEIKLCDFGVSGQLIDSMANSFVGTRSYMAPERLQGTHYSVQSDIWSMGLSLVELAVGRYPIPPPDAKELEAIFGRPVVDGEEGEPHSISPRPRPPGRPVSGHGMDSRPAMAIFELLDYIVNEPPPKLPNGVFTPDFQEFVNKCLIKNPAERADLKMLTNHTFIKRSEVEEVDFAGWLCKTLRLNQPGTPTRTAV", "experiment": "Inhibition of MEK2 assessed as enzyme activity at 1 uM relative to untreated control", "set-up": "scale not given: the % may be the effect or the level left"}, "[11]": {"biological_target": "BMP-2-inducible protein kinase (Homo sapiens) (UniProt Q9NSY1)", "experiment": "Inhibition of BIKE assessed as enzyme activity at 1 uM relative to untreated control", "set-up": "scale not given: the % may be the effect or the level left"}, "[12]": {"biological_target": "Serine/threonine-protein kinase NLK (Homo sapiens) (UniProt Q9UBE8)", "sequence (Q9UBE8 whole entry)": "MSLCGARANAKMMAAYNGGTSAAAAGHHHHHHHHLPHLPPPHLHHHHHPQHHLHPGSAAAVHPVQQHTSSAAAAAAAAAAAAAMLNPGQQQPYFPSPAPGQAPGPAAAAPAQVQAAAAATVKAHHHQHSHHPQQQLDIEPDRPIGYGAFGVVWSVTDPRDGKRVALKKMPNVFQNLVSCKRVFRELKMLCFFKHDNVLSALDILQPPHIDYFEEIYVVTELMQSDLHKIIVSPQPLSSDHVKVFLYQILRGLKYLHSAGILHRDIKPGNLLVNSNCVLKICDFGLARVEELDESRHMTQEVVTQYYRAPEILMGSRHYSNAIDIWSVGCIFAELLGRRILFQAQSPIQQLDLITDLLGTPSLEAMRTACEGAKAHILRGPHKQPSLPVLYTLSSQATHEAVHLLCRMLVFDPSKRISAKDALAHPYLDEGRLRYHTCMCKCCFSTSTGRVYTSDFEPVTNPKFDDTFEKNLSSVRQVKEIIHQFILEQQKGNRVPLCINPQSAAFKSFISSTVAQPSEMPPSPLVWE", "experiment": "Inhibition of NLK assessed as enzyme activity at 1 uM relative to untreated control", "set-up": "scale not given: the % may be the effect or the level left"}, "[13]": {"test_system": "Proto-oncogene tyrosine-protein kinase receptor Ret (Homo sapiens), P07949 [V804L]", "sequence (P07949 whole entry V804L)": "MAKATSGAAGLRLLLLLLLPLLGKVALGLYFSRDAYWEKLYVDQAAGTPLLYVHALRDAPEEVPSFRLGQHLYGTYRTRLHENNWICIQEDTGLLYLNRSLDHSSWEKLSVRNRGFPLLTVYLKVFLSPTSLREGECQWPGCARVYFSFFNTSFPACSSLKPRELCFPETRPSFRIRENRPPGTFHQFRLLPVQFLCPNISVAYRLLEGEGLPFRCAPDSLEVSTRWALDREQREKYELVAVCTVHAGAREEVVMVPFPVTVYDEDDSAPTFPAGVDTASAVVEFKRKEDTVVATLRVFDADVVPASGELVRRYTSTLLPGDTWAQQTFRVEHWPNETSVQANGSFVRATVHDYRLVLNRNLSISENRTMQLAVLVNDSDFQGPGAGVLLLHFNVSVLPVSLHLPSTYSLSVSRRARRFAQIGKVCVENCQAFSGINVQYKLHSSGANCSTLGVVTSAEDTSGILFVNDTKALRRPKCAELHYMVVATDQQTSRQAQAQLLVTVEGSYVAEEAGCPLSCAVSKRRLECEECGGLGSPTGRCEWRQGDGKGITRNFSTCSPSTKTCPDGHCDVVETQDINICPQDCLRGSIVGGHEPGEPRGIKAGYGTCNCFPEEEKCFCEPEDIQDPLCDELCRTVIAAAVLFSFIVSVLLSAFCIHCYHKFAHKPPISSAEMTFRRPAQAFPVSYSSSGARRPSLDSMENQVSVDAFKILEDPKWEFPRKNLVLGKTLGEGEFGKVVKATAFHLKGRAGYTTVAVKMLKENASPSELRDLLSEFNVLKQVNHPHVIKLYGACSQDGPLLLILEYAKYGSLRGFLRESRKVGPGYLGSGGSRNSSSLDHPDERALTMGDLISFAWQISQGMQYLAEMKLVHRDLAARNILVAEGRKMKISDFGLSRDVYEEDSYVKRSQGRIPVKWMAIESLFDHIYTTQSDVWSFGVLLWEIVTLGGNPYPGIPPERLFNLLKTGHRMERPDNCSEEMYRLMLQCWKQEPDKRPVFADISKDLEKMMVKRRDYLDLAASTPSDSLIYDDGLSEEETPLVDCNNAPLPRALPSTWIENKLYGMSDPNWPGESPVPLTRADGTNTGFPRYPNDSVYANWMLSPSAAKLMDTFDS", "experiment": "Inhibition of RET V804L mutant assessed as enzyme activity at 1 uM relative to untreated control", "set-up": "scale not given: the % may be the effect or the level left"}, "[14]": {"biological_target": "Phosphatidylinositol 4,5-bisphosphate 3-kinase catalytic subunit beta isoform (Homo sapiens) (UniProt P42338)", "experiment": "Inhibition of PIK3CB assessed as enzyme activity at 1 uM relative to untreated control", "set-up": "scale not given: the % may be the effect or the level left"}, "[15]": {"biological_target": "Tyrosine-protein kinase Tec (Homo sapiens) (UniProt P42680)", "experiment": "Inhibition of TEC assessed as enzyme activity at 1 uM relative to untreated control", "set-up": "scale not given: the % may be the effect or the level left"}, "[16]": {"test_system": "A-375", "experiment": "Antitumor activity against human A375 SQ2 cells xenografted in po dosed CD1 mouse assessed as inhibition of tumor growth administered once daily for 14 days", "assay_type": "functional", "details": "336 h"}, "[17]": {"biological_target": "Serine/threonine-protein kinase ULK3 (Homo sapiens) (UniProt Q6PHR2)", "experiment": "Inhibition of ULK3 assessed as enzyme activity at 1 uM relative to untreated control", "set-up": "scale not given: the % may be the effect or the level left"}, "[18]": {"biological_target": "Ephrin type-A receptor 2 (Homo sapiens) (UniProt P29317)", "experiment": "Inhibition of EPHA2 assessed as enzyme activity at 1 uM relative to untreated control", "set-up": "scale not given: the % may be the effect or the level left"}, "[19]": {"biological_target": "Proto-oncogene tyrosine-protein kinase receptor Ret (Homo sapiens) (UniProt P07949)", "experiment": "Inhibition of RET assessed as enzyme activity at 1 uM relative to untreated control", "set-up": "scale not given: the % may be the effect or the level left"}, "[20]": {"biological_target": "Ephrin type-B receptor 1 (Homo sapiens) (UniProt P54762)", "experiment": "Inhibition of EPHB1 assessed as enzyme activity at 1 uM relative to untreated control", "set-up": "scale not given: the % may be the effect or the level left"}, "[21]": {"biological_target": "Testis-specific serine/threonine-protein kinase 1 (Homo sapiens) (UniProt Q9BXA7)", "sequence (Q9BXA7 whole entry)": "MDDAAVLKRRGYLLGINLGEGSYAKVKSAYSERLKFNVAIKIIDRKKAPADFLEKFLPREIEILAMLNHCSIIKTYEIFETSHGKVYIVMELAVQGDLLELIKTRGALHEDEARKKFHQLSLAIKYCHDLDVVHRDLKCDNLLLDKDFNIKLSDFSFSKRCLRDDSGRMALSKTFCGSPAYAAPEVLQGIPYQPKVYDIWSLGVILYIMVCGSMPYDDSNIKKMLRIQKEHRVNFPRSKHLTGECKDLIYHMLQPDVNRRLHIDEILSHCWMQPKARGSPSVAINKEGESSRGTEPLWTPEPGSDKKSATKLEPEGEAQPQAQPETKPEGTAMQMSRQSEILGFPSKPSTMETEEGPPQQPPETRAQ", "experiment": "Inhibition of TSSK1 assessed as enzyme activity at 1 uM relative to untreated control", "set-up": "scale not given: the % may be the effect or the level left"}, "[22]": {"biological_target": "Cyclin-dependent kinase 5 (Homo sapiens) (UniProt Q00535)", "experiment": "Inhibition of CDK5 assessed as enzyme activity at 1 uM relative to untreated control", "set-up": "scale not given: the % may be the effect or the level left"}, "[23]": {"biological_target": "RAC-gamma serine/threonine-protein kinase (Homo sapiens) (UniProt Q9Y243)", "experiment": "Inhibition of AKT3 assessed as enzyme activity at 1 uM relative to untreated control", "set-up": "scale not given: the % may be the effect or the level left"}, "[24]": {"biological_target": "Serine/threonine-protein kinase D3 (Homo sapiens) (UniProt O94806)", "experiment": "Inhibition of PRKD3 assessed as enzyme activity at 1 uM relative to untreated control", "set-up": "scale not given: the % may be the effect or the level left"}, "[25]": {"biological_target": "Atypical kinase COQ8B, mitochondrial (Homo sapiens) (UniProt Q96D53)", "sequence (Q96D53 whole entry)": "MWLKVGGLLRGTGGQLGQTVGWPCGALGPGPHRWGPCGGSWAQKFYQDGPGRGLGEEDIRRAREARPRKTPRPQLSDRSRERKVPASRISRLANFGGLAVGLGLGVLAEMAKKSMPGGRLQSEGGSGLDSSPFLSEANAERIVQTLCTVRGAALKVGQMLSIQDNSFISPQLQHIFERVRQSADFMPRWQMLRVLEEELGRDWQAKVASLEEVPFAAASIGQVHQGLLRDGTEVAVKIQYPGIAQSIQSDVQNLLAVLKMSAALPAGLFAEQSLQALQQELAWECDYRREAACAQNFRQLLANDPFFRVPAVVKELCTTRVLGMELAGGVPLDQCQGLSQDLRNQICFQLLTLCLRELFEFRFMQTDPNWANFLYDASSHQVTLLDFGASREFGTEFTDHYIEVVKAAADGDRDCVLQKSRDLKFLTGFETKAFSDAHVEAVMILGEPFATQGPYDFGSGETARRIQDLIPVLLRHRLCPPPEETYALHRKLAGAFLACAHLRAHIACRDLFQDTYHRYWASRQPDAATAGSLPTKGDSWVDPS", "experiment": "Inhibition of ADCK4 assessed as enzyme activity at 1 uM relative to untreated control", "set-up": "scale not given: the % may be the effect or the level left"}, "[26]": {"experiment": "Oral bioavailability in CD1 mouse", "assay_type": "ADME, organism-based", "details": "in vivo"}, "[27]": {"biological_target": "Myosin-IIIb (Homo sapiens) (UniProt Q8WXR4)", "experiment": "Inhibition of MYO3B assessed as enzyme activity at 1 uM relative to untreated control", "set-up": "scale not given: the % may be the effect or the level left"}, "[28]": {"test_system": "A-375", "experiment": "Antitumor activity against human A375 SQ2 cells xenografted in CD1 mouse assessed as inhibition of tumor growth at 1 mg/kg, po qd for 14 days", "assay_type": "functional", "details": "A-375, 336 h"}, "[29]": {"biological_target": "Ephrin type-A receptor 4 (Homo sapiens) (UniProt P54764)", "experiment": "Inhibition of EPHA4 assessed as enzyme activity at 1 uM relative to untreated control", "set-up": "scale not given: the % may be the effect or the level left"}, "[30]": {"biological_target": "Insulin receptor-related protein (Homo sapiens) (UniProt P14616)", "experiment": "Inhibition of INSRR assessed as enzyme activity at 1 uM relative to untreated control", "set-up": "scale not given: the % may be the effect or the level left"}, "[31]": {"biological_target": "Mitogen-activated protein kinase kinase kinase 3 (Homo sapiens) (UniProt Q99759)", "experiment": "Inhibition of MAP3K3 assessed as enzyme activity at 1 uM relative to untreated control", "set-up": "scale not given: the % may be the effect or the level left"}, "[32]": {"biological_target": "Serine/threonine-protein kinase PAK 5 (Homo sapiens) (UniProt Q9P286)", "experiment": "Inhibition of PAK7/PAK5 assessed as enzyme activity at 1 uM relative to untreated control", "set-up": "scale not given: the % may be the effect or the level left"}, "[33]": {"biological_target": "Dual specificity protein kinase CLK2 (Homo sapiens) (UniProt P49760)", "sequence (P49760 whole entry, looked up)": "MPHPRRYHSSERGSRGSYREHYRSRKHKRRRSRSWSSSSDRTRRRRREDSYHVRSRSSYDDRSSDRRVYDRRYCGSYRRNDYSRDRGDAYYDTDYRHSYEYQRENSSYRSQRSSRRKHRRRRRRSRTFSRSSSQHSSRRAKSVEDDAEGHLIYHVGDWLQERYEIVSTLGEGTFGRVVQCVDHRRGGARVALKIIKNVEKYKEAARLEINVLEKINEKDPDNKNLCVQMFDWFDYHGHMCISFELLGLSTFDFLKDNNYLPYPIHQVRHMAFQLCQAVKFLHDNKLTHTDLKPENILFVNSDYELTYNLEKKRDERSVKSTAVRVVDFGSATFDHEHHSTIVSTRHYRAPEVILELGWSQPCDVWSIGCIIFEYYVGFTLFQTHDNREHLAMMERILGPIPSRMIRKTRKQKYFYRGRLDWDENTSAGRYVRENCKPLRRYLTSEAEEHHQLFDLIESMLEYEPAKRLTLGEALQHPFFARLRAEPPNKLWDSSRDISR", "experiment": "Inhibition of CLK2 assessed as enzyme activity at 1 uM relative to untreated control", "set-up": "scale not given: the % may be the effect or the level left"}, "[34]": {"biological_target": "Mitogen-activated protein kinase kinase kinase 7 (Homo sapiens) (UniProt O43318)", "experiment": "Inhibition of TAK1 assessed as enzyme activity at 1 uM relative to untreated control", "set-up": "scale not given: the % may be the effect or the level left"}, "[35]": {"test_system": "Tyrosine-protein kinase ABL1 (Homo sapiens), P00519 [E255K]", "experiment": "Inhibition of ABL1 E255K mutant assessed as enzyme activity at 1 uM relative to untreated control", "set-up": "scale not given: the % may be the effect or the level left"}, "[36]": {"biological_target": "Mitogen-activated protein kinase kinase kinase kinase 2 (Homo sapiens) (UniProt Q12851)", "experiment": "Inhibition of MAP4K2 assessed as enzyme activity at 1 uM relative to untreated control", "set-up": "scale not given: the % may be the effect or the level left"}, "[37]": {"biological_target": "cGMP-dependent protein kinase 1 (Homo sapiens) (UniProt Q13976)", "experiment": "Inhibition of PRKG1 assessed as enzyme activity at 1 uM relative to untreated control", "set-up": "scale not given: the % may be the effect or the level left"}, "[38]": {"biological_target": "Mitogen-activated protein kinase 9 (Homo sapiens) (UniProt P45984)", "experiment": "Inhibition of JNK2 assessed as enzyme activity at 1 uM relative to untreated control", "set-up": "scale not given: the % may be the effect or the level left"}}, "data": [{"molecule": "Cc1ccc2c(Nc3ccc(Cl)cc3)nccc2c1Nc1ncccc1-c1ncnc2[nH]cnc12.Cl.Cl.Cl", "values": [{"measurement": "Activity", "setting": "[1]", "result": 100, "unit": "%"}, {"measurement": "Activity", "setting": "[2]", "result": 99, "unit": "%"}, {"measurement": "Activity", "setting": "[3]", "result": 13, "unit": "%"}, {"measurement": "Activity", "setting": "[4]", "result": 83, "unit": "%"}, {"measurement": "Activity", "setting": "[5]", "result": 86, "unit": "%"}, {"measurement": "Activity", "setting": "[6]", "result": 84, "unit": "%"}, {"measurement": "Activity", "setting": "[7]", "result": 80, "unit": "%"}, {"measurement": "Activity", "setting": "[8]", "result": 61, "unit": "%"}, {"measurement": "Activity", "setting": "[9]", "result": 100, "unit": "%"}, {"measurement": "Activity", "setting": "[10]", "result": 99, "unit": "%"}, {"measurement": "Activity", "setting": "[11]", "result": 70, "unit": "%"}, {"measurement": "Activity", "setting": "[12]", "result": 83, "unit": "%"}, {"measurement": "Activity", "setting": "[13]", "result": 100, "unit": "%"}, {"measurement": "Activity", "setting": "[14]", "result": 100, "unit": "%"}, {"measurement": "Activity", "setting": "[15]", "result": 100, "unit": "%"}, {"measurement": "ED50", "setting": "[16]", "result": 1.3, "unit": "mg/kg"}, {"measurement": "Activity", "setting": "[17]", "result": 100, "unit": "%"}, {"measurement": "Activity", "setting": "[18]", "result": 2.8, "unit": "%"}, {"measurement": "Activity", "setting": "[19]", "result": 65, "unit": "%"}, {"measurement": "Activity", "setting": "[20]", "result": 2, "unit": "%"}, {"measurement": "Activity", "setting": "[21]", "result": 71, "unit": "%"}, {"measurement": "Activity", "setting": "[22]", "result": 100, "unit": "%"}, {"measurement": "Activity", "setting": "[23]", "result": 96, "unit": "%"}, {"measurement": "Activity", "setting": "[24]", "result": 100, "unit": "%"}, {"measurement": "Activity", "setting": "[25]", "result": 77, "unit": "%"}, {"measurement": "bioavailability", "setting": "[26]", "result": 79, "unit": "%"}, {"measurement": "Activity", "setting": "[27]", "result": 68, "unit": "%"}, {"measurement": "inhibition in vivo at 1 mg/kg", "setting": "[28]", "result": 22, "unit": "%"}, {"measurement": "Activity", "setting": "[29]", "result": 22, "unit": "%"}, {"measurement": "Activity", "setting": "[30]", "result": 78, "unit": "%"}, {"measurement": "Activity", "setting": "[31]", "result": 40, "unit": "%"}, {"measurement": "Activity", "setting": "[32]", "result": 90, "unit": "%"}, {"measurement": "Activity", "setting": "[33]", "result": 100, "unit": "%"}, {"measurement": "Activity", "setting": "[34]", "result": 84, "unit": "%"}, {"measurement": "Activity", "setting": "[35]", "result": 80, "unit": "%"}, {"measurement": "Activity", "setting": "[36]", "result": 100, "unit": "%"}, {"measurement": "Activity", "setting": "[37]", "result": 93, "unit": "%"}, {"measurement": "Activity", "setting": "[38]", "result": 86, "unit": "%"}]}]}
